Data on 4 molecules can be found in EP1490333B1, “NEW ATORVASTATIN SALTS AND PHARMACEUTICAL COMPOSITIONS CONTAINING THEM” (Richter Gedeon Nyrt., priority 2002, dated 2003).

Structures can show the parent of a compound that is named as a salt.

Data set [1] relates to Caco-2 human epithelial cells. The conditions noted are these: for absorption of atorvastatin: microtablets of the three basic salts placed on the mono layers, compared with each other, Figure 1.
Experimental: The essence of the method is, that microtablets are pressed from the drug substances to be examined without adding auxiliaries. The microtablets are made under the same conditions with the same pressing force, therefor the rate of penetration through cell-layer is determined by the intrinsic features of the examined substances.
In the model the absorption of atorvastatin through human epithelial (Caco-2) mono cell-layer was measured in such a way, that the microtablets prepared from the test compounds were placed on the mono cell-layers in the vessels containing physiological saline, then the time dependent amount of the test substance, which passed through the mono cell-layer was determined from the saline solution of the other side of the mono cell-layer by chromatography.
During the experiments 4 µmol base equivalent amounts were placed on the mono cell-layers from the microtablets.
During the experiments the reference compounds were placed on the mono cell-layer (luminal side, which in vivo equals the inner side of the intestine) in solution, the amount of the test substance, which passed through the mono cell-layer (abluminal side, which in vivo equals the blood circulation) was determined by chromatography, then the absorption coefficient characteristic for the absorption of the compounds was calculated (the English abbreviation used in the literature: Papp value).
At the end of the absorption experiments the intactness of the epithelial mono cell-layers was microscopically checked after tainting with toluidine blue. The amount of the test and reference compounds in the samples was determined by HPLC.
Data set [2] is described as follows: Specific surface of the salts. The class given is physicochemical.
The conditions of data set [3]: in vivo; cited from earlier work.

Regarding `CC(C)c1c(C(=O)Nc2ccccc2)c(-c2ccccc2)c(-c2ccc(F)cc2)n1CCC(O)CC(O)CC(=O)O.N=C(N)NCCCC(N)C(=O)O` [L-arginine salt, Atorvastatin L-arginine salt], the absorption of atorvastatin result in data set [1] was “no difference”. For the molecule `CC(C)c1c(C(=O)Nc2ccccc2)c(-c2ccccc2)c(-c2ccc(F)cc2)n1CC[C@@H](O)C[C@@H](O)CC(=O)O.NCCCC[C@H](N)C(=O)O` [atorvastatin L-lysine salt], in data set [2], the specific surface is 1.1 m^2/g. Further, the “absorption (penetration) of atorvastatin in Caco-2 model” value in data set [1] (compared with polymorph I (crystal form I) of hemi-calcium salt) is on record as “significantly better”. For the same molecule, the absorption of atorvastatin entry in data set [1] is “no difference”. Further, the “appearance of atorvastatin on the abluminal side of the mono cell-layers” value in data set [1] (microtablets, compared with microtablets of polymorph I of hemi-calcium salt, Figure 2) is recorded as “significantly faster”.

Consider `CC(C)c1c(C(=O)Nc2ccccc2)c(-c2ccccc2)c(-c2ccc(F)cc2)n1CC[C@@H](O)C[C@@H](O)CC(=O)O` [atorvastatin hemi-calcium salt, (3R,5R)-7-[3-phenyl-4-[(phenylamino)carbonyl]-2-(4-fluorophenyl)-5-(1-methyl-ethyl)-pyrrol-1-yl]-3,5-dihydroxy-heptanoic acid], for which the “part of the applied dose absorbed” value in data set [3] is “about 30%”. Turning to `CC(C)c1c(C(=O)Nc2ccccc2)c(-c2ccccc2)c(-c2ccc(F)cc2)n1CC[C@@H](O)C[C@@H](O)CC(=O)O` [atorvastatin hemi-calcium salt, reference compound], the specific surface in data set [2] was determined as 8.0 m^2/g.
